Source: patent US20240301001A1, “PEPTIDE-CONTAINING COMPOSITION” (Kyoto University, priority 2021, published 2024)

Tests used:
[1] = High-fat diet intake after oral administration under overnight fasting; type: in vivo; settings: male mice raised on high-fat diet (60% kcal fat)
Description: (§1) Male mice raised on a high-fat diet (60% kcal fat) were orally administered with the digested product under overnight fasting conditions, and the amount of food intake was measured over time (N=14-15). […] The data were analyzed by two-way analysis of variance, followed by multiple comparisons by Tukey's test. […] The error bars represent standard error (n=14-15).
The data were analyzed by two-way analysis of variance, followed by multiple comparisons by Tukey's test. […] The error bars represent standard error (n=9).
as §1, with “Rubisco-derived peptide YHIEPV” for “the digested product”, “(N=11).” for “(N=14-15).”, “the Bonferroni” for “Tukey's”, “(n=11).” for “(n=14-15).”
The data were analyzed by two-way analysis of variance, followed by multiple comparisons by Tukey's test. […] The error bars represent standard error (n=7-8).
The data were analyzed by two-way analysis of variance, followed by multiple comparisons by Tukey's test. In FIG. 10, the error bars represent standard error (n=5-7).

δ opioid receptor = target: T1, δ opioid receptor (Mus musculus, UniProt P32300); assay: Impact of naltrindole on high-fat diet intake suppression induced by oral YHIEPV; type: in vivo, mice; settings: YHIEPV oral plus naltrindole intraperitoneal; food intake 4 hours later
T1 construct: from tissue; host or cells: living male mice (whole animal)
T1 sequence (P32300 whole entry): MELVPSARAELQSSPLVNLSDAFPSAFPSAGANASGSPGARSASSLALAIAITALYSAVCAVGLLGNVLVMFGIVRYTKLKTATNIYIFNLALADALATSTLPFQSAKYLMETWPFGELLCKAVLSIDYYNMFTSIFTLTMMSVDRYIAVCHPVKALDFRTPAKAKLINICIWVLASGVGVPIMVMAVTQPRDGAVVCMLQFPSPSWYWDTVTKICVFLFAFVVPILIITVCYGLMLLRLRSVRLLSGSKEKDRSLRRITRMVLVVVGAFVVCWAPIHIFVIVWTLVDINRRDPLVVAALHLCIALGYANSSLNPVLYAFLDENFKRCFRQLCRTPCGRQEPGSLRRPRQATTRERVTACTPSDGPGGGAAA
Description: (§2) Male mice raised on a high-fat diet (60% kcal fat) were administered under overnight fasting conditions with YHIEPV (oral administration) and naltrindole (intraperitoneal administration), which is a δ opioid receptor inhibitor, or HS024 (intracerebroventricular administration), which is an MC4 receptor inhibitor, and the amount of food intake was measured 4 hours later (N=13-15). The δ opioid receptor and MC4 receptor are receptors involved in feeding behavior. […] The data were analyzed by one-way analysis of variance, followed by multiple comparisons by Tukey's test. […] The error bars represent standard error (n=13-15).

MC4 receptor = target: T2, MC4 receptor (Mus musculus, UniProt P56450); assay: Impact of HS024 on high-fat diet intake suppression induced by oral YHIEPV; type: in vivo, mice; settings: YHIEPV oral plus HS024 intracerebroventricular; food intake 4 hours later
T2 construct: from tissue; host or cells: living male mice (whole animal)
T2 sequence (P56450 whole entry): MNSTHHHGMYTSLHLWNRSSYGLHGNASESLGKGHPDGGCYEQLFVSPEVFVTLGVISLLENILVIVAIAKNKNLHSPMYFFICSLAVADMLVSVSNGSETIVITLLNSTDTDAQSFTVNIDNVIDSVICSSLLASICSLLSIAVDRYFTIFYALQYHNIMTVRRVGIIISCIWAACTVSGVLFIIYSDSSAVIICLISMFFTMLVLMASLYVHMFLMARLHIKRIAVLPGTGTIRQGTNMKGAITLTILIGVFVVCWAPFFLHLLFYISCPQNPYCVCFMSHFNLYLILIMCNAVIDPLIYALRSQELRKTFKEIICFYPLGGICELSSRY
Description: as §2

[2] = Long-term oral administration: body weight gain caused by high-fat diet; type: in vivo; settings: 0.3 mg/kg oral once a day, male mice on high-fat diet
Description: Male mice raised for at least one month on a high-fat diet (60% kcal fat) were orally administered with YHIEPV (0.3 mg/kg) once a day. The body weight and the amount of food intake were measured daily, and the amount of food intake was calculated as cumulative food intake (N=10). […] The data were analyzed by two-way analysis of variance, followed by multiple comparisons by the Bonferroni test. […] The error bars represent standard error (n=10).

leptin = assay: Serum leptin level by ELISA after five-week oral administration; type: in vivo, mice; settings: after five-week oral administration 0.3 mg/kg
Description: (§3) After the five-week oral administration of YHIEPV in Test Example 4, the blood was collected under anesthesia. Subsequently, the blood was centrifuged, and the serum was collected. The leptin level in the serum was determined by ELISA (according to the manufacturer's protocol) (N=10). The fat mass (peritesticular fat and mesenteric fat) was also measured at the same time as blood sampling (N=9). […] The data were analyzed by t-test. […] The error bars represent standard error (n=9-10).

[3] = Fat mass (peritesticular and mesenteric fat) after five-week oral administration; type: in vivo, mice; settings: after five-week oral administration 0.3 mg/kg
Description: as §3

[4] = system: phosphorylated STAT3 signal; assay: Intracellular leptin sensitivity in hypothalamic organ culture (phosphorylated STAT3 immunostaining); type: cell-based; settings: peptide 100 μM preincubation 24 hours, leptin 30 nM 1 hour
Description: Subsequently, formalin fixation was performed and the phosphorylated STAT3 signal was detected by an immunostaining chemistry method (N=6-7). […] The data were analyzed by one-way analysis of variance, followed by multiple comparisons by Tukey's test. […] The error bars represent standard error (n=6-8).

[5] = system: phosphorylated STAT3 signal; assay: Leptin resistance induced by Forskolin (Rap1 pathway stimulation) in hypothalamic organ culture; type: cell-based; settings: Forskolin 20 μM and YHIEPV 100 μM 6 hours, leptin 60 nM 1 hour
Description: A hypothalamic organ culture system was preincubated with Forskolin (20 μM) and YHIEPV (100 μM) for 6 hours, followed by leptin stimulation (60 nM) for 1 hour. Subsequently, formalin fixation was performed and the phosphorylated STAT3 signal was detected by an immunostaining chemistry method (N=6-7). Forskolin is known to induce leptin resistance via the Rap1 activation pathway. […] The data were analyzed by one-way analysis of variance, followed by multiple comparisons by Tukey's test. […] The error bars represent standard error (n=5-9).

[6] = Anti-obesity effect of intracerebroventricularly administered leptin with oral YHIEPV; type: in vivo, mice; settings: YHIEPV 0.3 mg/kg oral, leptin 0.5 μg intracerebroventricular
Description: A guide cannula was placed in the lateral ventricle of male mice raised on a high-fat diet (60% kcal fat) for at least one month, and a recovery period of at least 1 week was then provided. Subsequently, the body weight change and the amount of food intake were measured after the addition of YHIEPV (0.3 mg/kg, oral administration) and leptin (0.5 μg, intracerebroventricular administration) (N=10-12). […] The data were analyzed by two-way analysis of variance, followed by multiple comparisons by Tukey's test. […] The error bars represent standard error (n=10-12).

IL-6 = assay: Hypothalamic gene expression by RT-qPCR after high-fat diet; type: in vivo, mice; settings: hypothalamus, 0.3 mg/kg oral for 5 days
Description: (§4) Male mice were raised for at least one month on a high-fat diet (60% kcal fat) and were orally administered with YHIEPV (0.3 mg/kg) for 5 days, and hypothalamic and brain samples were then collected. The expression levels of genes associated with leptin resistance (SOCS-3, PTP1B, and TCPTP) and inflammatory cytokines (IL-6, IL1β, TNFα) in the hypothalamus were measured by RT-qPCR. Active Rap1 in the brain was quantified by using the Active Rap1 Pull-down assay kit and the Detection Kit according to the manufacturer's protocol (N=4). […] The data were analyzed by t-test. […] The error bars represent standard error (n=4).

IL1β = assay: as above; type: in vivo, mice; settings: hypothalamus, 0.3 mg/kg oral for 5 days
Description: as §4

PTP1B = assay: as above; type: in vivo, mice; settings: hypothalamus, 0.3 mg/kg oral for 5 days
Description: as §4

SOCS-3 = assay: as above; type: in vivo, mice; settings: hypothalamus, 0.3 mg/kg oral for 5 days
Description: as §4

TCPTP = assay: as above; type: in vivo, mice; settings: hypothalamus, 0.3 mg/kg oral for 5 days
Description: as §4

TNFα = assay: as above; type: in vivo, mice; settings: hypothalamus, 0.3 mg/kg oral for 5 days
Description: as §4

Active Rap1 = Active Rap1 pull-down assay in brain; type: in vivo, mice; settings: 0.3 mg/kg oral for 5 days
Description: as §4

[7] = previously discovered, PTL 2; cited from earlier work

| Substance | high-fat diet intake (amount of food intake over time) [1] | effect of suppressing high-fat diet intake in presence of δ opioid receptor inhibitor (δ opioid receptor) | effect of suppressing high-fat diet intake in presence of MC4 receptor inhibitor (MC4 receptor) | body weight gain caused by a high-fat diet [2] | blood leptin level (leptin) | fat mass [3] | intracellular leptin sensitivity in the hypothalamus [4] | leptin resistance induced by Forskolin [5] | anti-obesity effect of intracerebroventricularly administered leptin (body weight change, food intake) [6] | expression level of IL-6 (IL-6) | expression level of IL1β (IL1β) | expression level of PTP1B (PTP1B) | expression level of SOCS-3 (SOCS-3) | expression level of TCPTP (TCPTP) | expression level of TNFα (TNFα) | expression level of active Rap1 (Active Rap1) | anxiolytic effect [7] |
| --- | --- | --- | --- | --- | --- | --- | --- | --- | --- | --- | --- | --- | --- | --- | --- | --- | --- |
| YHIEPV (listed as Spinacia oleracea) | suppressed high-fat diet intake | inhibited | inhibited | suppressed body weight gain | decreased | trend toward decrease | enhanced | improved | enhanced | decreasing trend | significantly decreased | decreasing trend | significantly decreased | significantly decreased | decreasing trend | significantly decreased | anxiolytic effect |
| YKLTY (listed as Spinacia oleracea) [Rubisco-derived peptide, synthesized by solid-phase Fmoc method; contained in green leaf Rubisco digested product B] | suppressed high-fat diet intake | – | – | – | – | – | enhanced | – | – | – | – | – | – | – | – | – | – |
